The source of these data is EPA's ToxValDB 9.5.

Usually NOAEL stands for the highest dose or exposure tested at which no adverse effect was seen. The term LOAEL denotes the lowest dose or exposure tested at which an adverse effect was seen.

Converted amounts (≈) assume the structure as drawn. Where only a bound is given, the exact number is not on record here.

One series relates to Typhlodromus pyri. Nature of the series: LR50; higher = less toxic. The note with it: not reported; mortality.
Another series concerns Daphnia magna. The note with it: chronic/long-term; duration: 21 days; reproduction.
The subject of a further series is Oncorhynchus mykiss. The note with it: for LC50: acute, duration: 96 hours, mortality.
The test system of a further series is Tagia sp. As to conditions: for LC50: acute, duration: 14 days.
The next series relates to Bibionidae. As to conditions: chronic/long-term.
For a further series, the system named is Colinus virginianus. As to conditions: for LD50: acute, oral, mortality.
Another series relates to Canidae. As to conditions: Dog Other.
Another series concerns Rattus norvegicus. The note with it: for LD50: mortality.
Series [1] deals with Vigna radiata var. radiata. As to conditions: not reported; other.
In the next series the test system is Chrysoperla externa. Nature of the series: LR50; higher = less toxic. The note with it: not reported; duration: 34 days; mortality.
The test system of series [2] is Aphidius rhopalosiphi. As to conditions: not reported; mortality.
A further series concerns Apis mellifera. The note with it: acute, mortality.
A further series relates to Zea sp. The note with it: acute; duration: 22 days; biomass.
A further series concerns Coturnix coturnix. As to conditions: acute; oral; mortality.
In another series the test system is Anas platyrhynchos. As to conditions: for LC50: short-term, feed.
A further series has as its system Bird. The note with it: acute; oral; unspecified; mortality.
Another series deals with Mus musculus. As to conditions: acute; oral; F; mortality.
The subject of another series is Coturnix japonica. The note with it: reproduction developmental.
The test system of another series is Sus scrofa. The note with it: oral, Not specified.
Another series has as its system Aphidius colemani. Nature of the series: LR50; higher = less toxic. As to conditions: not reported; mortality.
A further series deals with Pimephales promelas. The note with it: chronic/long-term; duration: 255 days; growth.
Series [3] has as its system Equus caballus. The series can be described thus: ALD; higher = less toxic. The note with it: acute; oral; unspecified; mortality.
Another series has as its system Meleagris sp. As to conditions: chronic/long-term; duration: 16 weeks; oral; feed; M/F; no effects.
The subject of another series is Phasianus sp. The note with it: subchronic; duration: 35 days; oral; feed; food consumption.
Series [4] has as its system Equus caballus. The note with it: acute; oral; unspecified; mortality.
The subject of a further series is Numida meleagris. As to conditions: subchronic; duration: 35 days; oral; feed; no effects.
Series [5] concerns Aphidius rhopalosiphi. Nature of the series: LR50; higher = less toxic. As to conditions: acute; duration: 48 hours; mortality.
The next series concerns Gasterosteus aculeatus. As to conditions: acute; duration: 96 hours; mortality.
The test system of the next series is Ovis sp. As to conditions: subchronic, oral, diet.
The subject of the next series is Bovidae. As to conditions: subchronic; duration: 90 days; neurology.
The next series deals with Felidae. The note with it: chronic; duration: 420 days; oral; diet; M/F; Cat; neurology.
The subject of a further series is Neovison vison. The note with it: chronic; duration: 93 days; oral; diet; neurology.
The subject of the next series is Macaca mulatta. The note with it: chronic; duration: 183 days; oral; capsule; M/F; clinical chemistry.
The next series deals with Lepomis macrochirus. The note with it: acute; duration: 96 hours; mortality.
In a further series the test system is Leuciscus idus. The note with it: acute; duration: 96 hours; mortality.
Where [6] appears, read: chronic/long-term, duration: 28 days, growth.
The mark [7] stands for this setting: duration: 48 hours, oral, unspecified.
The mark [8] stands for this setting: chronic, duration: 2 years, clinical chemistry.
Setting [9] is: reproduction developmental, no effects.

Take `Nc1c(Cl)cc([N+](=O)[O-])cc1Cl` [1-Amino-2,6-dichloro-4-nitrobenzene]: the LR50 in the series on Typhlodromus pyri came to 374 g/ha. Also, the NOEC in the series on Daphnia magna was determined as 0.032 mg/L; in the series with Oncorhynchus mykiss (setting [6]), 0.05 mg/L; with Tagia sp. (chronic/long-term, duration: 56 days) it was 77.8 mg/kg; in the series on Bibionidae it was 0.6 mg/L; in the series with Colinus virginianus (reproduction developmental) it was 35.2 mg/kg-day. Besides, the NOAEL in the series on Canidae (chronic, duration: 1 years, oral, hematological) was determined as 2.5 mg/kg-day. In the series on Rattus norvegicus (reproduction developmental, body weight), the NOEL worked out at 19 mg/kg-day.

`Cc1cc(C)[nH]c(=O)n1` [4,6-Dimethylpyrimidin-2-ol] came in with an NOEC in series [1] of 2.63 mg/kg. For the same molecule, the LC50 with Tagia sp. (no effects) is > 1000 mg/kg.

The molecule `C/C=C(\C)C(=O)O[C@H]1C[C@@H](OC(C)=O)[C@@]2(C(=O)OC)CO[C@H]3[C@@H](O)[C@@](C)([C@]45O[C@@]4(C)[C@H]4C[C@@H]5O[C@@H]5OC=C[C@@]54O)[C@H]4[C@]1(CO[C@]4(O)C(=O)OC)[C@@H]32` [Azadirachtin] registered an LR50 in the series with Chrysoperla externa of 0.77 g/ha. Moreover, the NOEC in the series on Daphnia magna stood at 0.038 mg/L; in the series on Oncorhynchus mykiss (setting [6]) it was 0.0047 mg/L; in the series with Bibionidae (duration: 28 days) it was 0.0016 mg/L; in the series on Bibionidae (duration: 28 days, development), 0.0016 mg/L. Further, the figures for the LC50 in the series with Oncorhynchus mykiss and with Tagia sp. (mortality) were 0.048 µg/mL (≈ 0.0666 µM) and > 1000 mg/kg, respectively. Also, the LEL in the series with Aphidius rhopalosiphi [2] was determined as 57.6 g/ha; in the series on Zea sp. it was 30.9 g/ha. The LD50 was > 11.8 µg/piece with Apis mellifera (dermal); > 8.1 µg/piece in the series with Apis mellifera (setting [7]); > 8.1 µg/piece with Apis mellifera (oral, unspecified).

`CCOP(=S)(OCC)Oc1nc(Cl)c(Cl)cc1Cl` [Chlorpyrifos]: the LD50 in the series with Coturnix coturnix is 13.3 mg/kg; in the series on Bird it was 122 mg/kg; in the series with Mus musculus, 64 mg/kg; in the series on Colinus virginianus (duration: 1 hours), 75 mg/kg. For the same molecule, the NOEC in the series with Anas platyrhynchos (reproductive, reproduction) worked out at 2.88 mg/kg-day. The molecule further showed an LC50 in the series on Anas platyrhynchos (oral, mortality) of 71 mg/kg-day. For the same molecule, the NOAEL was found to be 0.1 mg/kg-day in the series on Canidae (setting [8]); 0.5 mg/kg-day in the series with Rattus norvegicus (acute, clinical chemistry); 0.1 mg/kg-day with Rattus norvegicus (setting [8]); 1 mg/kg-day with Rattus norvegicus (reproduction developmental); 0.1 mg/kg-day in the series with Rattus norvegicus (reproduction developmental, clinical chemistry).

For `O=c1oc2ccccc2c(O)c1C1CC(c2ccc(-c3ccccc3)cc2)Cc2ccccc21` (centres undefined) [Difenacoum], the LC50 in the series with Oncorhynchus mykiss was 0.064 µg/mL (≈ 0.144 µM); with Anas platyrhynchos (oral, mortality) it was 3.5 mg/kg-day. The molecule further came in with an NOAEL in the series on Oryctolagus sp. (reproduction developmental, hematological) of 0.005 mg/kg-day. Further, the NOEC in the series with Coturnix japonica was > 0.01 mg/kg-day. Further, the LD50 with Colinus virginianus came to 56 mg/kg-day; in the series with Sus scrofa (acute, mortality), 80 mg/kg-day; in the series on Canidae (acute, oral, mortality), 50 mg/kg-day; in the series on Rattus norvegicus (acute, oral), 1.8 mg/kg-day.

For `C=C1C[C@]23C[C@@]1(O)CC[C@H]2[C@@]12C=C[C@H](O)[C@@](C)(C(=O)O1)[C@H]2[C@@H]3C(=O)O` [Gibberellic acid], the LR50 with Aphidius colemani was > 10 g/ha. Moreover, the LD50 in the series with Apis mellifera (dermal) was > 25 µg/piece; with Anas platyrhynchos (acute, oral, unspecified, mortality), > 2000 mg/kg; in the series with Colinus virginianus (diet), > 904 mg/kg-day; with Rattus norvegicus (acute, oral) it was > 5000 mg/kg. The NOEL in the series with Oryctolagus sp. (setting [9]) and in the series with Rattus norvegicus (setting [9]) was 1000 mg/kg-day in each case. The molecule also returned an NOAEL with Rattus norvegicus (subchronic, duration: 90 days, oral, organ weight) of 680 mg/kg-day.

For `O=C(O)CNCP(=O)(O)O` [Glyphosate], the NOEC in the series with Daphnia magna turned out to be 12.5 mg/L; with Pimephales promelas, 25.7 mg/L; in the series with Danio rerio (short-term, duration: 168 hours, growth) it was 1 mg/L. In addition, the NOEL is 125 mg/kg-day in the series on Anas platyrhynchos (reproductive) and 96.3 mg/kg-day in the series with Colinus virginianus (reproduction developmental). In the series with Oryctolagus sp. (chronic), this molecule yielded an NOAEL of 50 mg/kg-day. For the same molecule, the LD50 is 4330 mg/kg-day with Colinus virginianus and > 2000 mg/kg-day in the series with Rattus norvegicus (acute, oral).

Molecule `CC[C@@H](C(=O)[C@@H](C)[C@@H](O)[C@H](C)CCc1ccc(C)c(O)c1C(=O)[O-])[C@H]1O[C@](CC)([C@H]2CC[C@](O)(CC)[C@H](C)O2)C[C@@H]1C.[Na+]` [Lasalocid sodium] had an ALD with Equus caballus [3] of 15 mg/kg. In addition, the LEL in the series on Meleagris sp. came to 375 mg/kg; with Phasianus sp., 180 mg/kg; with Numida meleagris it was 240 mg/kg; in the series on Canidae (repeat dose other, oral, diet, clinical signs), 5 mg/kg-day; in the series with Gallus gallus (subchronic, duration: 13 weeks, M/F, growth), 225 mg/kg-day. The LC50 with Tagia sp. (mortality) came out at 71.8 mg/kg; in the series on Danio rerio (acute, duration: 96 hours, mortality), 2.5 µg/mL. The molecule also registered an LD50 with Equus caballus [4] of 15 mg/kg. Also, the NOEL in the series with Oryctolagus sp. (developmental, duration: 23 days, oral, gavage, F, New Zealand, development) was found to be 0.5 mg/kg-day; in the series with Rattus norvegicus (chronic, duration: 2 years, oral, M, organ weight), 0.5 mg/kg-day.

For `CCOC(=O)CC(SP(=S)(OC)OC)C(=O)OCC` (centres undefined) [Malathion], the LR50 with Aphidius rhopalosiphi [5] came to 0.0612 g/ha. Further, the NOEC in the series on Daphnia magna is 6e-05 mg/L; with Oncorhynchus mykiss (chronic/long-term, duration: 97 days, morphology), 0.021 mg/L. Also, the LC50 is 613 mg/kg in the series on Tagia sp. (mortality) and 0.022 µg/mL (≈ 0.0666 µM) in the series on Gasterosteus aculeatus. Besides, in the series with Apis mellifera (duration: 48 hours, dermal), the LD50 came out at 0.16 µg/piece. Further, the NOAEL in the series on Rattus norvegicus (chronic, duration: 2 years, neurology) stood at 29 mg/kg-day; in the series with Rattus norvegicus (subchronic, duration: 90 days, neurology), 34 mg/kg-day.

As to `[CH3][Hg+]` [Methyl mercury(II) cation], the lowest observed adverse effect level (LOAEL) in the series on Ovis sp. (duration: 59 days, neurology) was 0.225 mg/kg-day; in the series on Anas platyrhynchos (reproductive, development) it was 5 mg/kg; in the series with Canidae (chronic, duration: 385 days, oral, neurology), 0.12 mg/kg-day; with Neovison vison it was 0.18 mg/kg-day. In addition, the NOAEL in the series on Oncorhynchus mykiss (chronic/long-term, duration: 112 days, oral, feed, hematological) is 0.17 mg/kg-day; with Bovidae, 0.1 mg/kg-day; in the series on Felidae it was 0.02 mg/kg-day; in the series with Sus scrofa (subchronic, duration: 60 days, diet, histopathology: nonneoplastic) it was 0.19 mg/kg-day; with Gallus gallus (reproduction developmental, duration: 50 days, F, reproduction) it was 0.75 mg/kg-day.

For `O=S(=O)(O)C(F)(F)C(F)(F)C(F)(F)C(F)(F)C(F)(F)C(F)(F)C(F)(F)C(F)(F)F` [Perfluorooctanesulfonic acid], in the series on Macaca mulatta, the NOAEL amounted to 0.03 mg/kg-day.

In the case of `CC(COc1ccc(Oc2ccccc2)cc1)Oc1ccccn1` (centres undefined) [Pyriproxyfen], in the series with Lepomis macrochirus, the LC50 is > 0.27 µg/mL. Also, the NOEC in the series with Daphnia magna was found to be 1.5e-05 mg/L; in the series with Oncorhynchus mykiss (chronic/long-term, duration: 95 days) it was 0.0043 mg/L; in the series on Bibionidae (duration: 28 days, other), 0.01 mg/L. This molecule had an LD50 with Apis mellifera (setting [7]) of 74 µg/piece.

`COc1cc2c(c3oc4cccc(O)c4c(=O)c13)[C@@H]1C=CO[C@@H]1O2` [Sterigmatocystin] displayed an LEL with Ovis sp. (duration: 8 weeks, no effects) of 0.3 mg/kg-day.

Consider `CN(C)C.Cl` [Trimethylamine hydrochloride], for which, in the series with Leuciscus idus, the LC50 is > 500 µg/mL. The NOAEL in the series with Rattus norvegicus (subchronic, duration: 90 days) came to 144 mg/kg-day.
